Entries after “also recorded” stand apart in the source; their conditions may differ. Like-named read-outs stand apart in the source and are kept apart here.
What was measured:
[1] = tested on: growth factor signaling pathway signature in GTL-16; assay: Growth factor signaling pathway signature score after MK-2461 in cell lines (microarray); format: cell-based; settings: 1 μM, 6 and 12 hours post-treatment
Description: (§1) Ten cell lines with alternations of the PI3K/MAPK pathway components were identified (see Table 6), including two cell lines with amplification of cMET (EBC-1 and GTL-16). […] To assess the regulation of the growth factor signaling pathway signature in these cells, these cell lines were treated with vehicle or 1 μM MK-2461. The cell lines were profiled at 6 and 12 hours post-treatment. Duplicate cultures were seeded in 6-well plates for each treatment group. Cell were ˜70% confluent at time of collection. Experiments were performed in duplicate.
(§2) RNA was harvested from both vehicle-treated and compound treated cells, and regulation of the growth factor signaling pathway by MK-2461 was assessed by comparing gene expression profiles of MK-2461 treated cells to vehicle treated cells. For every probe on the microarray, the log(10) ratio of expression in the MK-2461 treated samples relative to the cell line-matched vehicle treated samples was calculated. The growth factor signaling pathway signature score was calculated as the mean log(10) ratio of the genes in the “up” arm of the signature (see Table 5a) minus the mean log(10) ratio of the genes in the “down” arm of the signature (see Table 5b).

[2] = tested on: growth factor signaling pathway signature in EBC-1; assay: as above; format: cell-based; settings: 1 μM, 6 and 12 hours post-treatment
Description: as §1, §2

HT29 = assay: Sensitivity to cell killing by cMET inhibitor MK-2461; format: cell-based
EBC-1 tumor cells = assay: EBC-1 xenograft tumor growth; format: in vivo, HRLN female nu/nu mice
Description: (§3) HRLN female nu/nu mice were subcutaneously implanted with 5×10^6 EBC-1 tumor cells. Tumors were allowed to grow an average size of 450-500 mg before treatment was administered. Xenografts were treated with vehicle or 11, 34, or 112 mpk of MK-2461 (n=4 for each treatment group). […] Treatment was administered PO BID for 7 days. Tumors were harvested 2 hours after the final dose, as this was the estimated time to achieve Cmax.

EBC-1 = assay: Sensitivity to cell killing by cMET inhibitor MK-2461; format: cell-based
HCT116 = assay: as above; format: cell-based
GTL-16 = assay: as above; format: cell-based
A549 = assay: as above; format: cell-based
HCT15 (or AGS) = assay: as above; format: cell-based
[3] = tested on: growth factor signaling pathway signature in EBC-1 xenografts; assay: Growth factor signaling pathway signature score in EBC-1 xenografts (microarray); format: in vivo, HRLN female nu/nu mice; settings: 112 mpk PO BID for 7 days; tumors harvested 2 hours after the final dose
Description: as §3
RNA was harvested from both vehicle-treated and compound-treated samples. Regulation of the growth factor signaling pathway signature by MK-2461 was assessed by comparing gene expression profiles of MK-2461 treated samples to the mean gene expression profile of the 4 vehicle treated samples. The log(10) ratio of expression in the MK-2461 treated samples relative to the mean of the vehicle treated samples was calculated for every probe on the microarray. The growth factor signaling pathway signature score was calculated as the mean log(10) ratio of the genes in the “up” arm of the signature (see Table 5a) minus the mean log(10) ratio of the genes in the “down” arm of the signature (see Table 5b).

Colo205 = assay: Sensitivity to cell killing by cMET inhibitor MK-2461; format: cell-based
[4] = tested on: growth factor signaling pathway signature in LXFA-629; assay: Growth factor signaling pathway signature score post/pre-dose ratio in xenografts; format: in vivo, NMRI female nu/nu mice; settings: 24 hours after a single treatment, 500 μg/mouse ip
Description: (§4) Animals of Groups 3 and 4 were sacrificed for sample collection when the tumors had volumes between 400 and 600 mm^3 and 24 hours after a single treatment with either the control vehicle (Group 3) or IGF1R (Group 4). Tumors were cut into two parts, snap frozen in liquid nitrogen and stored at −80° C. RNA was harvested from both vehicle-treated and MK0646-treated samples as previously described for hybridization to DNA oligonucleotide arrays.
(§5) Regulation of the growth factor signaling pathway signature by MK-0646 was assessed by comparing mean gene expression profiles of MK0646 treated samples for each xenograft to the mean gene expression profile of the vehicle treated samples. The log(10) ratio of expression in the MK-0646 treated samples relative to the vehicle treated samples was calculated for every probe on the microarray. The growth factor signaling pathway signature score was calculated as the mean log(10) ratio of the genes in the “up” arm of the signature (see Table 5a) minus the mean log(10) ratio of the genes in the “down” arm of the signature (see Table 5b). A post/pre-dose ratio of the growth factor signaling pathway signature score was then calculated and compared to the tumor inhibition T/C ratio for each xenograft (see FIG. 34).

[5] = tested on: growth factor signaling pathway signature in MAXF-713; assay: as above; format: in vivo, NMRI female nu/nu mice; settings: 24 hours after a single treatment, 500 μg/mouse ip
Description: as §4, §5

LXFA-629 = assay: Patient-derived tumor xenograft growth inhibition (T/C); format: in vivo, NMRI female nu/nu mice; settings: 500 μg/mouse ip once weekly
Excerpt: (§6) NMRI female nu/nu mice were subcutaneously implanted with patient-derived tumor xenografts: lung adenocarcinoma LXFA 526, LXFA 629, LXFA 677, LXFA 749 and LXFA 1012; squamous cell lung carcinoma LXFE, 211, LXFE 397, LXFE 409 and LXFE 1422; small cell lung cancer LXFS 538, LXFS 573 and LXFS 615; colorectal carcinoma CXF 94LX, CXF 158, CXF 280, CXF 975, CXF 1103 and CXF 1729; renal cell carcinoma RXF 393, RXF 423, RXF 631 and RXF 1220; gastric cancer GXF 97, GXF 251 and GXF 281; ovarian cancer OVXF 550, OVXF 899, OVXF 1023, OVXF 1353 and OVXF 1544 (Oncotest GmbH, Freiburg, Germany). All tumor xenografts were derived from surgical specimen from human patients and directly transplanted into nude mice for propagation. Tumor xenografts were passaged in nude mice until establishment of a stable growth pattern. Master stocks of early passage xenografts were frozen in liquid nitrogen. A particular master stock batch is typically only used for about 20 further passages. Tumor fragments were obtained from xenografts in serial passage in nude mice. After removal of tumors from donor mice, they were cut into fragments (1-2 mm diameter) and placed RPMI 1640 culture medium until subcutaneous implantation. Recipient mice were anesthetized by inhalation of isoflurane. Tumor fragments (1-2 per mouse) were transplanted subcutaneously into the backs of recipient mice. Animals carrying at least one tumor of appropriate size (mean tumor diameter 6-8 mm, minimum acceptable tumor diameter 5 mm) were considered for randomization into treatment and vehicle control groups.
(§7) MK-0646 IGF1R monoclonal antibody (U.S. Pat. No. 7,241,444) was diluted to a final dosing concentration of 2 mg/mL with 20 mM—L Histidine, 150 mM NaCl, 0.5% PS—80 w/w pH 6.5 at ratio of 1:5.65. The diluted treatment solution was administered at an application volume of 250 μl/mouse for the dose level of 500 μg/mouse. The control vehicle was 20 mM-L Histidine, 150 mM NaCl, 0.5% PS-80 w/w, pH6.5. Vehicle was administered at 250 μl/mouse. IGF1R monoclonal antibody and control vehicle were injected intraperitoneally. Test and control mice were injected once a week on the same days. The number of injections ranged from 2 to 7, depending on the duration of the experiment. Experiments were terminated when one of the limits set by the German animal regulations was met.
(§8) Each experiment consisted of a vehicle control group (Group 1) receiving 20 mM-L Histidine, 150 mM NaCl, 0.5% PS-80 w/w, pH6.5 at 250 μL/mouse ip once weekly and one group treated with IGF-1R at 500 μg/mouse ip once weekly (Group 2). For sample collection purposes each experiment also comprised two groups (Groups 3 and 4) receiving a single therapy either with the vehicle or with IGF-1R at the same dose levels. According to the study protocol the group size in the efficacy groups (Groups 1 and 2) was 7 mice while the sample collection groups (Group 3 and 4) contained 3 nude mice each. In the experiments with CXF 1103 and RXF 631 bearing mice the efficacy groups contained 8 mice and group size in the efficacy groups of the experiment with LXFE 211 bearing nude mice was 9. […]
(§9) Relative volumes of individual tumors (RTVs) for Day x were calculated by dividing the individual tumor volume on Day X (Tx) by the individual volume of the same tumor on Day 0 (T0) multiplied by 100%.
(§10) [formula] Group tumor volumes were expressed as the median RTV of all tumors in a group (group median RTV). […]

OVXF-899 = assay: as above; format: in vivo, NMRI female nu/nu mice; settings: 500 μg/mouse ip once weekly
Excerpt: as §6, §7, §8, §9, §10

CSF-94LX = assay: as above; format: in vivo, NMRI female nu/nu mice; settings: 500 μg/mouse ip once weekly
Excerpt: as §6, §7, §8, §9, §10

CSF-1729 = assay: as above; format: in vivo, NMRI female nu/nu mice; settings: 500 μg/mouse ip once weekly
Excerpt: as §6, §7, §8, §9, §10

CSF-280 = assay: as above; format: in vivo, NMRI female nu/nu mice; settings: 500 μg/mouse ip once weekly
Excerpt: as §6, §7, §8, §9, §10

SXF-1186 = assay: as above; format: in vivo, NMRI female nu/nu mice; settings: 500 μg/mouse ip once weekly
MAXF-713 = assay: as above; format: in vivo, NMRI female nu/nu mice; settings: 500 μg/mouse ip once weekly

CN(C[C@@H]1COCCO1)S(=O)(=O)Nc1ccc2ccc3ncc(-c4cnn(C)c4)cc3c(=O)c2c1 [MK-2461, N-[(2R)-1,4-dioxan-2-ylmethyl]-N-methyl-N′-[3-(1-methyl-1H-pyrazol-4-yl)-5-oxo-5H-benzo[4,5]cyclohepta[1,2-b]pyridin-7-yl]sulfamide]
inhibition of the growth factor signaling pathway signature [1]: Inhibition of the growth factor signaling pathway signature was observed; also recorded: inhibition of the growth factor signaling pathway was only observed | inhibition of the growth factor signaling pathway signature [2]: Inhibition of the growth factor signaling pathway signature was observed; also recorded: inhibition of the growth factor signaling pathway was only observed | sensitive to MK2461 (HT29): no | effect on tumor growth (EBC-1 tumor cells; 11 mpk PO BID): no effect on tumor growth | effect on tumor growth (EBC-1 tumor cells; 34 mpk PO BID): no effect on tumor growth | efficacy in xenografts (EBC-1 tumor cells; 112 mpk): only dose that resulted in efficacy | tumor growth inhibition compared to vehicle treatment (EBC-1 tumor cells; 112 mpk PO BID): approximately 30% | sensitive to MK2461 (EBC-1): sensitive to cell killing | sensitive to MK2461 (EBC-1; listed as MK2461): ✓ | sensitive to MK2461 (HCT116): no | sensitive to MK2461 (GTL-16): sensitive to cell killing | sensitive to MK2461 (GTL-16; listed as MK2461): ✓ | sensitive to MK2461 (A549): no | sensitive to MK2461 (HCT15 (or AGS)): no | inhibition of the growth factor signaling pathway signature in xenografts [3]: Inhibition of the growth factor signaling pathway signature was only observed | sensitive to MK2461 (Colo205): no

MK-0646: IGF1R monoclonal antibody (U.S. Pat. No. 7,241,444)
growth factor signaling score post/pre-dose ratio [4]: low | growth factor signaling score post/pre-dose ratio [5]: low | tumor inhibition (T/C ratio) (LXFA-629): strong tumor inhibition; also recorded: most tumor inhibition | tumor inhibition (T/C ratio) (OVXF-899): strong tumor inhibition | tumor inhibition (T/C ratio) (CSF-94LX): strong tumor inhibition | tumor inhibition (T/C ratio) (CSF-1729): moderate response | tumor inhibition (T/C ratio) (CSF-280): moderate response | tumor inhibition (T/C ratio) (SXF-1186): moderate response | tumor inhibition (T/C ratio) (MAXF-713): strong tumor inhibition; also recorded: most tumor inhibition
